In ChEMBL document CHEMBL1201862, “PubChem BioAssay data set” (2004):
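Where inhibition never reached the appropriate level, the endpoint shown equals the highest concentration tested. Otherwise, values were interpolated linearly from a five-concentration, 48-hour dose response in 96-well plates. Here, GI50 denotes the concentration required for 50% inhibition of growth.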 Activity calls are given as the source filed them. Rule as the data show it: active = GI50 up to about 1.1 µM and inactive = higher.

Columns and labels:
Test in all cases: growth of human tumour cells (NCI), 48 h
SR = test system: SR
HOP-92 = test system: HOP-92
HCT-15 = test system: HCT-15
MDA-MB-231 = test system: MDA-MB-231
RPMI-8226 = test system: RPMI-8226
SK-MEL-28 = test system: SK-MEL-28
PC-3 = test system: PC-3
SNB-19 = test system: SNB-19
KM12 = test system: KM12
NCI-H460 = test system: NCI-H460
DU-145 = test system: DU-145
SK-MEL-2 = test system: SK-MEL-2
SF-539 = test system: SF-539
MDA-N = test system: MDA-N
786-0 = test system: 786-0
SK-MEL-5 = test system: SK-MEL-5
SNB-75 = test system: SNB-75
MOLT-4 = test system: MOLT-4
CAKI-1 = test system: CAKI-1

C[C@]12CC[C@H]3[C@@H](CC=C4C[C@@H](O)CC[C@@]43C)[C@@H]1C/C(=C\c1cccnc1)[C@@H]2O
GI50 (SR): 1.57 µM (inactive) | GI50 (HOP-92): 11.9 µM (inactive) | GI50 (HCT-15): 38.1 µM | GI50 (MDA-MB-231): 13.2 µM (inactive) | GI50 (RPMI-8226): > 100 µM (inactive) | GI50 (SK-MEL-28): 32.1 µM (inactive) | GI50 (PC-3): 30.7 µM (inactive) | GI50 (SNB-19): 16 µM (inactive) | GI50 (KM12): > 100 µM (inactive) | GI50 (NCI-H460): 31.6 µM (inactive) | GI50 (DU-145): 13.5 µM (inactive) | GI50 (SK-MEL-2): 30.8 µM (inactive) | GI50 (SF-539): 14 µM (inactive) | GI50 (MDA-N): > 100 µM (inactive) | GI50 (786-0): 19 µM (inactive)

Cc1ccc(S(=O)(=O)NC(=O)NCCC(=O)O)cc1
GI50 (SR): > 100 µM (inactive) | GI50 (HOP-92): > 100 µM (inactive) | GI50 (SK-MEL-5): > 100 µM (inactive) | GI50 (SNB-75): > 100 µM (inactive) | GI50 (HCT-15): 21.4 µM | GI50 (MDA-MB-231): > 100 µM (inactive) | GI50 (RPMI-8226): > 100 µM (inactive) | GI50 (SK-MEL-28): > 100 µM (inactive) | GI50 (PC-3): > 100 µM (inactive) | GI50 (SNB-19): > 100 µM (inactive) | GI50 (KM12): > 100 µM (inactive) | GI50 (NCI-H460): > 100 µM (inactive) | GI50 (DU-145): > 100 µM (inactive) | GI50 (SK-MEL-2): > 100 µM (inactive) | GI50 (SF-539): > 100 µM (inactive) | GI50 (MDA-N): > 100 µM (inactive) | GI50 (MOLT-4): > 100 µM (inactive) | GI50 (786-0): > 100 µM (inactive)

CC1CC/C(=C\c2ccc(F)cc2)C2=C1C(c1ccc(F)cc1)n1c(s/c(=C/c3cccc(Br)c3)c1=O)=N2 (stereo unspecified)
GI50 (SR): > 100 µM (inactive) | GI50 (HOP-92): > 100 µM (inactive) | GI50 (SK-MEL-5): > 100 µM (inactive) | GI50 (SNB-75): > 100 µM (inactive) | GI50 (HCT-15): > 100 µM | GI50 (MDA-MB-231): > 100 µM (inactive) | GI50 (RPMI-8226): > 100 µM (inactive) | GI50 (SK-MEL-28): > 100 µM (inactive) | GI50 (PC-3): > 100 µM (inactive) | GI50 (SNB-19): > 100 µM (inactive) | GI50 (KM12): > 100 µM (inactive) | GI50 (CAKI-1): > 100 µM (inactive) | GI50 (DU-145): > 100 µM (inactive) | GI50 (SK-MEL-2): > 100 µM (inactive) | GI50 (MDA-N): > 100 µM (inactive) | GI50 (MOLT-4): > 100 µM (inactive) | GI50 (786-0): > 100 µM (inactive)

CN1CN(c2ccccc2)C2(CCN(C3Nc4ccccc4O3)CC2)C1=O (stereo unspecified)
GI50 (SR): 36.9 µM (inactive) | GI50 (SK-MEL-5): 17.7 µM (inactive) | GI50 (SNB-75): 20.9 µM (inactive) | GI50 (HCT-15): 15.2 µM | GI50 (MDA-MB-231): 20.1 µM (inactive) | GI50 (RPMI-8226): 11.7 µM (inactive) | GI50 (SK-MEL-28): 23.5 µM (inactive) | GI50 (PC-3): 16.7 µM (inactive) | GI50 (SNB-19): 23.7 µM (inactive) | GI50 (KM12): 19.6 µM (inactive) | GI50 (CAKI-1): 25.5 µM (inactive) | GI50 (NCI-H460): 17.7 µM (inactive) | GI50 (DU-145): 22.7 µM (inactive) | GI50 (SK-MEL-2): 13.6 µM (inactive) | GI50 (SF-539): 15.1 µM (inactive) | GI50 (MDA-N): 17.9 µM (inactive) | GI50 (MOLT-4): 9.57 µM (inactive) | GI50 (786-0): 20.6 µM (inactive)

COC(=O)CC(c1cn(S(=O)(=O)c2ccc(C)cc2)c2ccccc12)C1C[C@@H](C(=O)OC)N(C(=O)OC(C)(C)C)C1=O (stereo partly specified)
GI50 (SR): 3.08 µM (inactive) | GI50 (SK-MEL-5): > 100 µM (inactive) | GI50 (SNB-75): 64.1 µM (inactive) | GI50 (HCT-15): 26.5 µM | GI50 (MDA-MB-231): 22.5 µM (inactive) | GI50 (RPMI-8226): 8.77 µM (inactive) | GI50 (SK-MEL-28): > 100 µM (inactive) | GI50 (PC-3): 47.6 µM (inactive) | GI50 (SNB-19): > 100 µM (inactive) | GI50 (KM12): 71.9 µM (inactive) | GI50 (CAKI-1): 31.7 µM (inactive) | GI50 (NCI-H460): 26.6 µM (inactive) | GI50 (DU-145): 87.1 µM (inactive) | GI50 (SK-MEL-2): 44.3 µM (inactive) | GI50 (SF-539): 7.66 µM (inactive) | GI50 (MDA-N): 55.8 µM (inactive) | GI50 (MOLT-4): 3.91 µM (inactive) | GI50 (786-0): 63.8 µM (inactive)

COc1cc(C2C(Cl)C(=O)N2c2c(C)n(C)n(-c3ccccc3)c2=O)ccc1O (stereo unspecified)
GI50 (SR): 12 µM (inactive) | GI50 (HOP-92): 21.3 µM (inactive) | GI50 (SK-MEL-5): 23.2 µM (inactive) | GI50 (MDA-MB-231): 22.1 µM (inactive) | GI50 (RPMI-8226): 18.1 µM (inactive) | GI50 (PC-3): 28.8 µM (inactive) | GI50 (KM12): 17.7 µM (inactive) | GI50 (CAKI-1): 33.6 µM (inactive) | GI50 (NCI-H460): 23.6 µM (inactive) | GI50 (DU-145): 29.7 µM (inactive) | GI50 (SK-MEL-2): 20.3 µM (inactive) | GI50 (SF-539): 16.3 µM (inactive) | GI50 (MDA-N): 15.6 µM (inactive) | GI50 (MOLT-4): 15.1 µM (inactive) | GI50 (786-0): 11.9 µM (inactive)
